In patent publication US9346822B2, “Thienopyrimidine compounds and use thereof” (TAKEDA PHARMACEUTICAL COMPANY LIMITED, priority 2003, dated 2016):

biological target: human GnRH receptor (Homo sapiens (Human), UniProt P30968); assay: 125I-leuprorelin binding inhibition, CHO cell membrane fraction containing human GnRH receptor; details: human GnRH receptor expressed in CHO cell membrane, 25° C., 60 minutes, from Hill plot
Procedure: To a tube containing 10 μl of a 3×10^−4 M aqueous solution of leuprorelin and 10 μl of 0.01 mg/ml lactoperoxidase was added 10 μl (37 MBq) of a solution of Na^125I. After stirring, 10 μl of 0.001% H2O2 was added, and a reaction was carried out at room temperature for 20 minutes. By adding 700 μl of a 0.05% TFA solution, the reaction was stopped, followed by purification by reversed-phase HPLC. The HPLC conditions used are shown below. ^125I-leuprorelin was eluted at a retention time of 26 to 27 minutes.
Human GnRH receptor-expressing CHO cells (10^9 cells) were suspended in phosphate-buffered saline supplemented with 5 mM EDTA (PBS-EDTA) and centrifuged at 100×g for 5 minutes. […]
The monkey and human membrane fractions prepared in the above (2) and (3) were diluted with the assay buffer to yield a 200 µg/ml dilution, each of which was then dispensed at 188 μl per tube. […] To determine maximum binding quantity, a reaction mixture containing 2 μl of 60% DMSO and 10 μl of 38 nM ^125I-leuprorelin was prepared. […]
Where the membrane fraction of the CHO with monkey and human GnRH receptors expressed was used, the reaction was carried out at 25° C. for 60 minutes. […] After this filtration, the radioactivity of ^125I-leuprorelin remaining on the filter paper was measured with a γ-counter. […]

human GnRH receptor, sequence (P30968 whole entry): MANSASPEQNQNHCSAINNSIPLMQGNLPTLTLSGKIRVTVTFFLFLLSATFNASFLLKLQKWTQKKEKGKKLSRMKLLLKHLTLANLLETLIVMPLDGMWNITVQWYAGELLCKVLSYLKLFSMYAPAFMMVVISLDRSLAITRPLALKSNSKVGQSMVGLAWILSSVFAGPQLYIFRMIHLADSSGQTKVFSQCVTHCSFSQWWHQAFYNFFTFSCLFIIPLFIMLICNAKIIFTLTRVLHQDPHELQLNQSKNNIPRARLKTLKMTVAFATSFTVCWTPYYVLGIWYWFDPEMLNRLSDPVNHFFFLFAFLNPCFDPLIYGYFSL

Point of comparison: COCCN(C)Cc1c(-c2ccc(NC(=O)NOC)cc2)sc2c1c(=O)n(-c1ccccn1)c(=O)n2Cc1c(F)cccc1F [Ex. Compd. No. 40, N-(4-(1-(2,6-difluorobenzyl)-5-(((2-methoxyethyl)(methyl)amino)methyl)-2,4-dioxo-3-(2-pyridinyl)-1,2,3,4-tetrahydrothieno[2,3-d]pyrimidin-6-yl)phenyl)-N′-methoxyurea], IC50 0.0002 µM. Against it:
- CCOCCN(C)Cc1c(-c2ccc(NC(=O)NOC)cc2)sc2c1c(=O)n(-c1ccccn1)c(=O)n2Cc1c(F)cccc1F [Ex. Compd. No. 41, N-(4-(1-(2,6-difluorobenzyl)-5-(((2-ethoxyethyl)(methyl)amino)methyl)-2,4-dioxo-3-(2-pyridinyl)-1,2,3,4-tetrahydrothieno[2,3-d]pyrimidin-6-yl)phenyl)-N′-methoxyurea] — 2-fold lower, 0.0001 µM

test system: not given; assay: not given; details: not given

First: COCC(c1ccccc1)N(C)Cc1c(-c2ccc(NC(=O)NOC)cc2)sc2c1c(=O)n(-c1ccccc1)c(=O)n2Cc1c(F)cccc1F (centres unmarked) [Reference Example 32, N-(4-(1-(2,6-difluorobenzyl)-5-((2-methoxy-1-phenylethyl(methyl)amino)methyl)-1,2,3,4-tetrahydro-2,4-dioxo-3-phenylthieno[2,3-d]pyrimidin-6-yl)phenyl)-N′-methoxyurea]
Second: CONC(=O)Nc1ccc(-c2sc3c(c2CN[C@H](C)c2ccccc2)c(=O)n(-c2ccccc2)c(=O)n3Cc2c(F)cccc2F)cc1 (hydrate or solvate) [Reference Example 28, N-(4-(5-(((1R)-1-phenylethylamino)methyl)-1-(2,6-difluorobenzyl)-1,2,3,4-tetrahydro-2,4-dioxo-3-phenylthieno[2,3-d]pyrimidin-6-yl)phenyl)-N′-methoxyurea]
The melting point of the first is lower: 169 to 172 °C for the first, 180 to 182 °C for the second.

Compared with CONC(=O)Nc1ccc(-c2sc3c(c2CN(C)[C@H](C)c2ccccc2)c(=O)n(-c2ccccn2)c(=O)n3Cc2c(F)cccc2F)cc1 [Reference Example 38, N-(4-(5-((methyl((1R)-1-phenylethyl)amino)methyl)-1-(2,6-difluorobenzyl)-1,2,3,4-tetrahydro-2,4-dioxo-3-pyridin-2-ylthieno[2,3-d]pyrimidin-6-yl)phenyl)-N′-methoxyurea], CONC(=O)Nc1ccc(-c2sc3c(c2CN(C)[C@H](C)c2ccccc2)c(=O)n(-c2ccc(F)cn2)c(=O)n3Cc2c(F)cccc2F)cc1 [Reference Example 39, N-(4-(5-((methyl((1R)-1-phenylethyl)amino)methyl)-1-(2,6-difluorobenzyl)-1,2,3,4-tetrahydro-2,4-dioxo-3-(5-fluoropyridin-2-yl)thieno[2,3-d]pyrimidin-6-yl)phenyl)-N′-methoxyurea] is lower in melting point: 168 to 170 °C for the first, 128 to 130 °C for the second.

First: CONC(=O)Nc1ccc(-c2sc3c(c2CN[C@@H](C)c2ccccc2)c(=O)n(-c2ccccc2)c(=O)n3Cc2c(F)cccc2F)cc1 [Reference Example 29, N-(4-(5-(((1S)-1-phenylethylamino)methyl)-1-(2,6-difluorobenzyl)-1,2,3,4-tetrahydro-2,4-dioxo-3-phenylthieno[2,3-d]pyrimidin-6-yl)phenyl)-N′-methoxyurea]
Second: COCC(C)N(C)Cc1c(-c2ccc(NC(=O)NOC)cc2)sc2c1c(=O)n(-c1ccccc1)c(=O)n2Cc1c(F)cccc1F (centres unmarked) [Reference Example 34, N-(4-(1-(2,6-difluorobenzyl)-5-(((2-methoxy-1-methylethyl)methylamino)methyl)-1,2,3,4-tetrahydro-2,4-dioxo-3-phenylthieno[2,3-d]pyrimidin-6-yl)phenyl)-N′-methoxyurea]
The melting point of the first is higher: 182 to 185 °C for the first, 154 to 155 °C for the second.
